Reference: patent US20250304643A1, “PEPTIDE DUAL AGONISTS OF GIPR AND GLP2R” (BAINAN BIOTECH APS, priority 2021, published 2025)
Where two headings read alike, the source gives them in different places.

Key:
Type in all cases: cell-based
human GLP-2R = biological target: T1, human GLP-2R (Homo sapiens, UniProt O95838); assay: HitHunter cAMP assay in transiently transfected COS-7 cells, human GLP-2R;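 also: cells kept 30 min at 37 °C in buffer with 1 mM IBMX, then given ligand for another 30 min at 37 °C before cAMP readout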
T1 construct: host or cells: COS-7
T1 sequence (O95838 1-553): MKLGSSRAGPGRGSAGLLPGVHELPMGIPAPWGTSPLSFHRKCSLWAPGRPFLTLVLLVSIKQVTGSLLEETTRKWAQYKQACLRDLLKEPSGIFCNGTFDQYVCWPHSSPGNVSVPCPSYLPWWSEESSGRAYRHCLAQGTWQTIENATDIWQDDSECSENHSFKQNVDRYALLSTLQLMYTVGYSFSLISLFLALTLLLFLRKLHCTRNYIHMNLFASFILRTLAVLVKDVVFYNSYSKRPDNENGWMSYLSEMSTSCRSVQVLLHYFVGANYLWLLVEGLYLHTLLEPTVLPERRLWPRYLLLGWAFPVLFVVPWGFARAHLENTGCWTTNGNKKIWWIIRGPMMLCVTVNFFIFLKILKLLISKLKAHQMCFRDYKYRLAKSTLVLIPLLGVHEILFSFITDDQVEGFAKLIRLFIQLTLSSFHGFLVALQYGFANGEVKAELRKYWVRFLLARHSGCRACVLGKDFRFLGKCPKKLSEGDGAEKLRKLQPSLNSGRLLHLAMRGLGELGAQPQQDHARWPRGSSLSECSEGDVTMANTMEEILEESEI
Description: COS-7 cells were cultured at 10% CO2 and 37° C. in Dulbecco's Modified Eagle Medium (DMEM) 1885 supplemented with 10% fetal bovine serum (FBS), 2 mM glutamine, 180 units/ml penicillin, and 45 g/ml streptomycin.
The next day the assay was initiated by washing with HEPES buffered saline (HBS) and followed by an incubation step with assay buffer (HBS added 1 mM isobutyl-1-methylxanthine (IBMX)) for 30 min at 37° C. The ligands were then added and incubated for an additional 30 min at 37° C. After ligand incubation, the HitHunter® CAMP assay (Eurofins DiscoverX, Fremont, 150 USA) was carried out according to the manufacturer's instructions. Luminescence was measured by PerkinElmer™ EnVision 2014 Multilabel Reader (PerkinElmer, Waltham, MA). The potencies (EC50 values) were determined by nonlinear regression using GraphPad Prism 9 (San Diego, California, USA). Sigmoid curves were fitted logistically. The efficacies (Emax values) were determined by normalization to the highest concentration applied of the endogenous ligand for each receptor.

human GLP-1R = biological target: T2, human GLP-1R (Homo sapiens, UniProt P43220); assay: HitHunter cAMP assay in transiently transfected COS-7 cells, human GLP-1R; details: for activation of hGLP-1R: fatty acid at C-terminal residue or position 16
T2 construct: host or cells: COS-7
Description: The next day the assay was initiated by washing with HEPES buffered saline (HBS) and followed by an incubation step with assay buffer (HBS added 1 mM isobutyl-1-methylxanthine (IBMX)) for 30 min at 37° C. The ligands were then added and incubated for an additional 30 min at 37° C. After ligand incubation, the HitHunter® CAMP assay (Eurofins DiscoverX, Fremont, […] USA) was carried out according to the manufacturer's instructions. Luminescence was measured by PerkinElmer™ EnVision 2014 Multilabel Reader (PerkinElmer, Waltham, MA). The potencies (EC50 values) were determined by nonlinear regression using GraphPad Prism 9 (San Diego, California, USA). Sigmoid curves were fitted logistically. The efficacies (Emax values) were determined by normalization to the highest concentration applied of the endogenous ligand for each receptor.

human GIPR = biological target: T3, human GIPR (Homo sapiens, UniProt P48546); set-up: host or cells: COS-7
T3 sequence (P48546 22-466): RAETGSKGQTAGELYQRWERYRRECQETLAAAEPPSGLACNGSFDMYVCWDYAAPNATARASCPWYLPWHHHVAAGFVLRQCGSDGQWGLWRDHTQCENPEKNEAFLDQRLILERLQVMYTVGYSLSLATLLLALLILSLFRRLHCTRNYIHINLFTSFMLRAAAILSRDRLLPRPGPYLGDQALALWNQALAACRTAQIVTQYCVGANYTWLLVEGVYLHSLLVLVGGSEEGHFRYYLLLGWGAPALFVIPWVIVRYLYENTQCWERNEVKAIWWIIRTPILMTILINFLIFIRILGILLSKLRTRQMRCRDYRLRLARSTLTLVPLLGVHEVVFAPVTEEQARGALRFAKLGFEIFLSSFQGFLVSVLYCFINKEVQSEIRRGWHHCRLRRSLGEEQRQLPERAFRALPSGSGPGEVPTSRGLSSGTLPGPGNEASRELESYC

human SNAP-GIPR = biological target: T4, human SNAP-GIPR (Homo sapiens, UniProt P48546); set-up: AUC ± SD: unit not given beside the values; details: GIPR internalization
T4 construct: host or cells: HEK293A
T4 sequence (P48546 22-466): T3 sequence (P48546 22-466)

[1] = Emax normalized to highest concentration of endogenous ligand, Table 2
[2] = Emax normalized to highest concentration of endogenous ligand, Table 3
[3] = comparative peptides, Emax normalized to endogenous ligand, Table B
[4] = comparative peptides, Emax normalized to endogenous ligand, Table C
[5] = comparative peptides, Emax normalized to endogenous ligand, Table 4A

T2 sequence (P43220 24-463): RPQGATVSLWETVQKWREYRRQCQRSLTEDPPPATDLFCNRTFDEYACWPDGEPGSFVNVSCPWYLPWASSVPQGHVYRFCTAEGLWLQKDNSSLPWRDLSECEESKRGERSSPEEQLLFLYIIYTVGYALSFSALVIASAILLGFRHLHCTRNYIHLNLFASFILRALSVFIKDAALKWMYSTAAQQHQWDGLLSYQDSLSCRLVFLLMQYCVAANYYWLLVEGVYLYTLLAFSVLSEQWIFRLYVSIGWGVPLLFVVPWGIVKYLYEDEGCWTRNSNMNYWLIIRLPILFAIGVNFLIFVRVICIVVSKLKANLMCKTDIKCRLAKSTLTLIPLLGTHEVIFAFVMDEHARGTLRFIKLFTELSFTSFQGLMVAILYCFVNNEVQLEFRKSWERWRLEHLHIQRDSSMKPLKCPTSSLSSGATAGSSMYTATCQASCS

(C10-diacid)H-Aib-DGTFISDYST-Aib-LDNLAARDFINWLIQTKITK-OH [Compound no. 18]
Efficacy GLP-2R (human GLP-2R; [1]): 90
Efficacy GLP-1R (human GLP-1R; [2]): 10
Efficacy GIPR (human GIPR; [1]): 77

(C16)H-Aib-DGTFISDYST-Aib-LDNLAARDFINWLIQTKITK-OH [Compound no. 5]
Efficacy GLP-2R (human GLP-2R; [1]): 109
Efficacy GLP-1R (human GLP-1R; [2]): 6
Efficacy GIPR (human GIPR; [1]): 111

(C16)H-Aib-DGTFISDYSTILD-Aib-LAARDFINWLIQTKITK-OH [Compound no. 6]
Efficacy GLP-2R (human GLP-2R; [1]): 91
Efficacy GLP-1R (human GLP-1R; [2]): 34
Efficacy GIPR (human GIPR; [1]): 108

(C16)H-Aib-DGTFISDYSTILDNLAARDFIEWLIQTKIT-OH [Compound no. 8]
Efficacy GLP-2R (human GLP-2R; [1]): 106
Efficacy GLP-1R (human GLP-1R; [2]): 19
Efficacy GIPR (human GIPR; [1]): 108

(C16)H-Aib-DGTFISDYSTILDNLAARDFIEWLIQTKITK-OH [Compound no. 7]
Efficacy GLP-2R (human GLP-2R; [1]): 101
Efficacy GLP-1R (human GLP-1R; [2]): 13
Efficacy GIPR (human GIPR; [1]): 114

(C16)HADGTFISDYSTILDAibLAARDFINWLIQTKITKNDWKHNITQ [Compound no. 16]
Efficacy GLP-2R (human GLP-2R; [1]): 64
Efficacy GLP-1R (human GLP-1R; [2]): 2
Efficacy GIPR (human GIPR; [1]): 99

(C16)HADGTFISDYSTILELLAARDFINWLIQTKITKNDWKHNITQ [Compound no. 15]
Efficacy GLP-2R (human GLP-2R; [1]): 70
Efficacy GLP-1R (human GLP-1R; [2]): 0
Efficacy GIPR (human GIPR; [1]): 106

(C16-diacid)H-Aib-DGTFISDYST-Aib-LDNLAARDFINWLIQTKITK-OH [Compound no. 17]
Efficacy GLP-2R (human GLP-2R; [1]): 90
Efficacy GLP-1R (human GLP-1R; [2]): 5
Efficacy GIPR (human GIPR; [1]): 98

(C16-diacid)H-Aib-EGTFISDYST-Aib-LDALAARDFINWLIQTKITKNDWKHNITQ-OH [Compound no. 41]
Efficacy GLP-2R (human GLP-2R; [1]): 74
Efficacy GLP-1R (human GLP-1R; [2]): 14
Efficacy GIPR (human GIPR; [1]): 91

(C16-diacid)H-Aib-EGTFISDYST-Aib-LDKLAARDFINWLIQTKITK-OH [Compound no. 21]
Efficacy GLP-2R (human GLP-2R; [1]): 58
Efficacy GLP-1R (human GLP-1R; [2]): 10
Efficacy GIPR (human GIPR; [1]): 86

Ac-H-Aib-DGTFISDYS-K(γGlu-C16)-Aib-LDNLAARDFINWLIQTKITK-OH [Compound no. 36]
Efficacy GLP-2R (human GLP-2R; [1]): 76
Efficacy GLP-1R (human GLP-1R; [2]): 19
AUC ± SD (human SNAP-GIPR; AUC of sigmoid curves up to 1 μM): 47 ± 1
Emax ± SD (%) (human SNAP-GIPR; NA = no activity): 58 ± 8%
Efficacy GIPR (human GIPR; [1]): 92

H-Aib-DG-K(γGlu- γGlu-C10)-FISDYSTILDNLAARDFINWLIQTKITK-OH [Compound no. 26]
Efficacy GLP-2R (human GLP-2R; [1]): 91
Efficacy GLP-1R (human GLP-1R; [2]): 14
Efficacy GIPR (human GIPR; [1]): 80

H-Aib-DG-K(γGlu- γGlu-C16)-FISDYST-Aib-LDNLAARDFINWLIQTKITK-OH [Compound no. 28]
Efficacy GLP-2R (human GLP-2R; [1]): 99
Efficacy GLP-1R (human GLP-1R; [2]): 14
Efficacy GIPR (human GIPR; [1]): 105

H-Aib-DGTF-K(γGlu-C16)-SDYSTILDNLAARDFINWLIQTKITK-OH [Compound no. 10]
Efficacy GLP-2R (human GLP-2R; [1]): 23
Efficacy GLP-1R (human GLP-1R; [2]): 10
Efficacy GIPR (human GIPR; [1]): 102

H-Aib-DGTFISDY-K(γGlu-C10)-T-Aib-LDNLAARDFINWLIQTKITD-OH [Compound no. 30]
Efficacy GLP-2R (human GLP-2R; [1]): 81
Efficacy GLP-1R (human GLP-1R; [2]): 10
Efficacy GIPR (human GIPR; [1]): 85

H-Aib-DGTFISDY-K(γGlu-C16)-T-Aib-LDNLAARDFINWLIQTKITK-OH [Compound no. 29]
Efficacy GLP-2R (human GLP-2R; [1]): 124
Efficacy GLP-1R (human GLP-1R; [2]): 0
Efficacy GIPR (human GIPR; [1]): 104

H-Aib-DGTFISDYS-K(γGlu-C16)-ILDNLAARDFINWLIQTKITK-OH [Compound no. 12]
Efficacy GLP-2R (human GLP-2R; [1]): 79
Efficacy GLP-1R (human GLP-1R; [2]): 62
Efficacy GIPR (human GIPR; [1]): 107

H-Aib-DGTFISDYST-Aib-LDNLAARDFINWLIQTKITK(C10)-NH2 [Compound no. 65, reference compound]
Efficacy GLP-2R (human GLP-2R; [3]): 77
Efficacy GLP-1R (human GLP-1R; [4]): 76
activation of hGLP-1R (human GLP-1R): capable of activating hGLP-1R
Efficacy GIPR (human GIPR; [5]): 107

H-Aib-DGTFISDYSTILDNLAARDFINWLIQTKITK(C10)-OH [Compound no. 63, reference compound]
Efficacy GLP-2R (human GLP-2R; [3]): 105
Efficacy GLP-1R (human GLP-1R; [4]): 84
activation of hGLP-1R (human GLP-1R): capable of activating hGLP-1R
Efficacy GIPR (human GIPR; [5]): 99

H-Aib-EG-K(γGlu-C16)-FISDYST-Aib-LDNLAARDFINWLIQTKITK-OH [Compound no. 27]
Efficacy GLP-2R (human GLP-2R; [1]): 108
Efficacy GLP-1R (human GLP-1R; [2]): 0
Efficacy GIPR (human GIPR; [1]): 98

HADGTFISDYSTAibLDK(γGlu-C18-diacid) LAARDFINWLIQTKGKK [Compound no. 62, reference compound]
activation of hGLP-1R (human GLP-1R): capable of activating hGLP-1R

HADGTFISDYSTAibLDNLAARDFINWLIQTKGKKK(γGlu-C18-diacid) [Compound no. 61, reference compound]
activation of hGLP-1R (human GLP-1R): capable of activating hGLP-1R

HADGTFISDYSTILDK(γGlu-C18-diacid) LAARDFINWLIQTKGKK [Compound no. 64, reference compound]
activation of hGLP-1R (human GLP-1R): capable of activating hGLP-1R

HADGTFISDYSTILDNLAARDFINWLIQTKGKK(γGlu-C18-diacid) [Compound no. 60, reference compound]
activation of hGLP-1R (human GLP-1R): capable of activating hGLP-1R
